Measurements taken from patent US11254665B2, “Crystalline sulfamide compound” (CHIA TAI TIANQING PHARMACEUTICAL GROUP CO., LTD., priority 2017, dated 2022).

How the values were obtained:
IDH1(R132C) = IDH1(R132C) (Homo sapiens, UniProt O75874, R132C); assay: Enzyme assay (NADPH/diaphorase/resazurin), IDH1 mutant inhibition; format: biochemical; details: 16 h pre-incubation with enzyme and NADPH at 23° C.
Excerpt: (§1) Resazurin is a traditional redox dye, and after a redox reaction, it can be reduced from a blue resazurin without fluorescence to a pink fluorescent substance, resorufin, which can be measured and quantified with relative fluorescence unit (RFU) of fluorophotometer (Ex=530-570 nm, Em=590-620 nm). At present, resazurin is widely used for determining the viability of bacteria, cells, etc., and the enzyme activity detection of oxidoreductase. We detected the decrease of cofactor NADPH to determine the inhibitory activity of a compound against IDH1m and detected the generation of cofactor NADPH to determine the inhibitory activity of a compound against IDH WT. […] The amount of the remaining cofactor NADPH after a specific reaction time was quantified via an easily detectable fluorophore.
(§2) The specific operation was as follows: 2.5 μl of the compound diluted in a 3-fold gradient was added to a 384-well plate, followed by adding 5 μl of the reaction buffer (20 mM Tris-HCl, pH 7.5; 150 mM NaCl; 10 mM MgCl2; 0.4 mg/mL BSA (Bovine Serum Albumin) and 2 mM DTT (dithiothreitol)) containing 40 nM IDH1 (R132H/R132C) and 20 μM NADPH. […] After incubating at 23° C. for 10 minutes, fluorescence values were determined through Flexstation 3 at Ex535/Em595. […]

IDH1(R132H) = IDH1(R132H) (Homo sapiens, UniProt O75874, R132H); assay: as above; format: biochemical; details: 16 h pre-incubation with enzyme and NADPH at 23° C.
Chain of IDH1(R132H) (O75874 whole entry R132H): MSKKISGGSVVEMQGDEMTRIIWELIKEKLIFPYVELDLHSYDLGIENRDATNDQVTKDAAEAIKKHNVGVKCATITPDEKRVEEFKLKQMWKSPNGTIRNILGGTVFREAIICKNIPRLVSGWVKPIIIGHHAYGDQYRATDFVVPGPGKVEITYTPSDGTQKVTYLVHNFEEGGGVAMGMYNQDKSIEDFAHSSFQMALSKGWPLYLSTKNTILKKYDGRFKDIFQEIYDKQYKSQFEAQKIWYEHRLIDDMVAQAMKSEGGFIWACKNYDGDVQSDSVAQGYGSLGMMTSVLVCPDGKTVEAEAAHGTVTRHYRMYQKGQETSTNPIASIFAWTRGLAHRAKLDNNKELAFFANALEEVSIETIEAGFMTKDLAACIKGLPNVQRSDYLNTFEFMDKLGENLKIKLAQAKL
Excerpt: as §1, §2

[1] = Pharmacokinetic experiments, single peroral administration; format: in vivo; details: rat; male SD rats, oral 5 mg/kg, suspension in 0.5% MC, 0.2% Tween80, plasma
Protocol: Male SD rats were from Beijing Vital River Laboratory Animal Technology Co., Ltd., and divided into groups (3 rats per group). The rats were intragastrically administered with the test sample suspension (5 mg/kg) via a single peroral administration, respectively. The animals were fasted overnight before this study. The fasting time period was from 10 hours before administration to 4 hours after administration. Blood samples were taken at 0.25, 0.5, 1, 2, 4, 6, 8 and 24 hours after administration. After the rats were anesthetized with isoflurane using an anesthesia machine for small animal, and then 0.3 mL whole blood samples were taken from the fundus venous plexus. The blood samples were placed in heparin anticoagulant tubes, and centrifuged for 5 min at 4° C. and 4000 rpm. The plasma was transferred to centrifuge tubes, and stored at −80° C. till analysis. The samples in plasma were extracted through protein precipitation. The liquid extract was analyzed by LC-MS/MS, wherein HPLC conditions were as follows: flow rate 0.4 mL/min; mobile phase A: water/formic acid (99.9/0.1, v/v); mobile phase B: acetonitrile/formic acid (99.9/0.1, v/v); injection volume: 5 μL; column temperature: RT; autosampler temperature: RT; run time: 2.5 min.

[2] = Stability influencing factors: high temperature test; format: physicochemical
Protocol: (§3) In accordance with “Stability Testing of New Drug Substances and Products” in ICH Q1A and “Guidelines for the Stability Testing of Drug Substances and Preparations” in Pharmacopoeia of China, fourth part, 2015 edition, 9001, the stability influencing factors were tested for the crystal of the monohydrate formula II, including high temperature, high humidity and light tests.
(§4) In accordance with “Stability Testing of New Drug Substances and Products” in ICH Q1A and “Guidelines for the Stability Testing of Drug Substances and Preparations” in Pharmacopoeia of China, fourth part, 2015 edition, 9001, the stability influencing factors were tested for the crystal of the compound of formula I, including high temperature and high humidity tests.
(§5) In accordance with “Stability Testing of New Drug Substances and Products” in ICH Q1A and “Guidelines for the Stability Testing of Drug Substances and Preparations” in Pharmacopoeia of China, fourth part, 2015 edition, 9001, the stability influencing factors were tested for the amorphous form of the compound of formula I, including high temperature and high humidity tests.

[3] = Stability influencing factors: high humidity test; format: physicochemical
Protocol: as §3, §4, §5

[4] = Stability influencing factors: light test; format: physicochemical
Protocol: as §3

Chain of IDH1(R132C) (O75874 whole entry R132C): as the sequence (O75874 whole entry R132H) above, with H132C counted along it

N#Cc1ccnc(N2[C@H](C(=O)N(c3cccc(F)c3)[C@H](C(=O)NC3CC(F)(F)C3)c3ccccc3Cl)CCS2(=O)=O)c1 [Compound of formula I, (S)—N—((S)-1-(2-chlorophenyl)-2-((3,3-difluorocyclobutyl)amino)-2-oxoethyl)-2-(4-cyanopyridin-2-yl)-N-(3-fluorophenyl)-isothiazolidine-3-carboxamide 1,1-dioxide]
IC50 (IDH1(R132C)): < 20 nM
IC50 (IDH1(R132H)): < 20 nM
Tmax [1]: 4 h

N#Cc1ccnc(N2[C@H](C(=O)N(c3cccc(F)c3)[C@H](C(=O)NC3CC(F)(F)C3)c3ccccc3Cl)CCS2(=O)=O)c1 [crystal of the monohydrate of formula II]
Appearance ([2]; 0 day): White
Enantiomers (%) ([2]; 0 day): 0.01%
Total impurities (%) ([2]; 0 day): 0.38%
Total of diastereoisomers (%) ([2]; 0 day): 0.05%
Water (%) ([2]; 0 day): 3.10%
Appearance ([2]; 40° C., 5 day): White
Enantiomers (%) ([2]; 40° C., 5 day): 0.01%
Total impurities (%) ([2]; 40° C., 5 day): 0.45%
Total of diastereoisomers (%) ([2]; 40° C., 5 day): 0.05%
Water (%) ([2]; 40° C., 5 day): 2.69%
Appearance ([2]; 40° C., 10 day): White
Enantiomers (%) ([2]; 40° C., 10 day): 0.01%
Total impurities (%) ([2]; 40° C., 10 day): 0.47%
Total of diastereoisomers (%) ([2]; 40° C., 10 day): 0.05%
Water (%) ([2]; 40° C., 10 day): 2.45%
Appearance ([2]; 60° C., 5 day): White
Total impurities (%) ([2]; 60° C., 5 day): 0.48%
Total of diastereoisomers (%) ([2]; 60° C., 5 day): 0.05%
Water (%) ([2]; 60° C., 5 day): 2.67%
Appearance ([2]; 60° C., 10 day): White
Enantiomers (%) ([2]; 60° C., 10 day): 0.01%
Total impurities (%) ([2]; 60° C., 10 day): 0.47%
Total of diastereoisomers (%) ([2]; 60° C., 10 day): 0.05%
Water (%) ([2]; 60° C., 10 day): 2.51%
Appearance ([3]; 0 day): White
Enantiomers (%) ([3]; 0 day): 0.01%
Total impurities (%) ([3]; 0 day): 0.38%
Total of diastereoisomers (%) ([3]; 0 day): 0.05%
Water (%) ([3]; 0 day): 3.10%
Appearance ([3]; 75% RH, 5 day): White
Enantiomers (%) ([3]; 75% RH, 5 day): 0.01%
Total impurities (%) ([3]; 75% RH, 5 day): 0.44%
Total of diastereoisomers (%) ([3]; 75% RH, 5 day): 0.05%
Water (%) ([3]; 75% RH, 5 day): 2.69%
Appearance ([3]; 75% RH, 10 day): White
Enantiomers (%) ([3]; 75% RH, 10 day): 0.01%
Total impurities (%) ([3]; 75% RH, 10 day): 0.50%
Total of diastereoisomers (%) ([3]; 75% RH, 10 day): 0.05%
Water (%) ([3]; 75% RH, 10 day): 2.53%
Appearance ([3]; 92.5% RH, 5 day): White
Enantiomers (%) ([3]; 92.5% RH, 5 day): 0.01%
Total impurities (%) ([3]; 92.5% RH, 5 day): 0.49%
Total of diastereoisomers (%) ([3]; 92.5% RH, 5 day): 0.04%
Water (%) ([3]; 92.5% RH, 5 day): 2.72%
Appearance ([3]; 92.5% RH, 10 day): White
Enantiomers (%) ([3]; 92.5% RH, 10 day): 0.01%
Total impurities (%) ([3]; 92.5% RH, 10 day): 0.49%
Total of diastereoisomers (%) ([3]; 92.5% RH, 10 day): 0.05%
Water (%) ([3]; 92.5% RH, 10 day): 2.42%
Appearance ([4]; 0 day): White
Enantiomers (%) ([4]; 0 day): 0.01%
Total impurities (%) ([4]; 0 day): 0.38%
Total of diastereoisomers (%) ([4]; 0 day): 0.05%
Water (%) ([4]; 0 day): 3.10%
Appearance ([4]; Lighting, 5 day): White
Enantiomers (%) ([4]; Lighting, 5 day): 0.01%
Total impurities (%) ([4]; Lighting, 5 day): 0.56%
Total of diastereoisomers (%) ([4]; Lighting, 5 day): 0.05%
Water (%) ([4]; Lighting, 5 day): 2.72%
Appearance ([4]; Lighting, 10 day): White
Enantiomers (%) ([4]; Lighting, 10 day): 0.01%
Total impurities (%) ([4]; Lighting, 10 day): 0.63%
Total of diastereoisomers (%) ([4]; Lighting, 10 day): 0.05%
Water (%) ([4]; Lighting, 10 day): 2.47%
Appearance ([4]; shading, 5 day): White
Enantiomers (%) ([4]; shading, 5 day): 0.01%
Total impurities (%) ([4]; shading, 5 day): 0.49%
Total of diastereoisomers (%) ([4]; shading, 5 day): 0.05%
Water (%) ([4]; shading, 5 day): 2.73%
Appearance ([4]; shading, 10 day): White
Enantiomers (%) ([4]; shading, 10 day): 0.01%
Total impurities (%) ([4]; shading, 10 day): 0.47%
Total of diastereoisomers (%) ([4]; shading, 10 day): 0.05%
Water (%) ([4]; shading, 10 day): 2.55%
